Results as given in PubChem BioAssay AID2060885 (Molecular Pharmacology Branch, DTP, NCI, 2025).

Test system: NCI-H23 complex spheroids with HUVEC/MSC, viability
Experiment: Anticancer human tumor NCI-H23 cell line growth inhibition [RAS];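 note: spheroids exposed to compound for 7 days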;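 for viability, T/C: 100% = DMSO vehicle control viability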
Conditions: for IC50: curve of first compound; for viability, T/C: stronger effect = lower value
In short: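 Tumour cells grown as complex spheroids with HUVEC endothelial cells and mesenchymal stem cells, treated with RAS pathway inhibitor combinations. Each agent spans half-log steps from near clinical Cmax, or 10 microM where Cmax is unknown.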

[1] = second compound 0.000949 µM, first compound 0.000949 µM
[2] = second compound 0.000949 µM, first compound 0.003 µM
[3] = second compound 0.000949 µM, first compound 0.00949 µM
[4] = second compound 0.000949 µM, first compound 0.03 µM
[5] = second compound 0.000949 µM, first compound 0.0949 µM
[6] = second compound 0.000949 µM, first compound 0.3 µM
[7] = second compound 0.003 µM, first compound 0.000949 µM
[8] = second compound 0.003 µM, first compound 0.003 µM
[9] = second compound 0.003 µM, first compound 0.00949 µM
[10] = second compound 0.003 µM, first compound 0.03 µM
[11] = second compound 0.003 µM, first compound 0.0949 µM
[12] = second compound 0.003 µM, first compound 0.3 µM
[13] = second compound 0.00949 µM, first compound 0.000949 µM
[14] = second compound 0.00949 µM, first compound 0.003 µM
[15] = second compound 0.00949 µM, first compound 0.00949 µM
[16] = second compound 0.00949 µM, first compound 0.03 µM
[17] = second compound 0.00949 µM, first compound 0.0949 µM
[18] = second compound 0.00949 µM, first compound 0.3 µM
[19] = second compound 0.03 µM, first compound 0.000949 µM
[20] = second compound 0.03 µM, first compound 0.003 µM
[21] = second compound 0.03 µM, first compound 0.00949 µM
[22] = second compound 0.03 µM, first compound 0.03 µM
[23] = second compound 0.03 µM, first compound 0.0949 µM
[24] = second compound 0.03 µM, first compound 0.3 µM
[25] = second compound 0.0949 µM, first compound 0.000949 µM
[26] = second compound 0.0949 µM, first compound 0.003 µM
[27] = second compound 0.0949 µM, first compound 0.00949 µM
[28] = second compound 0.0949 µM, first compound 0.03 µM
[29] = second compound 0.0949 µM, first compound 0.0949 µM
[30] = second compound 0.0949 µM, first compound 0.3 µM
[31] = second compound 0.3 µM, first compound 0.000949 µM
[32] = second compound 0.3 µM, first compound 0.003 µM
[33] = second compound 0.3 µM, first compound 0.00949 µM
[34] = second compound 0.3 µM, first compound 0.03 µM
[35] = second compound 0.3 µM, first compound 0.0949 µM
[36] = second compound 0.3 µM, first compound 0.3 µM

For `C=CC(=O)N1CCN(c2nc(OCC3CCCN3C)nc3c(F)c(-c4nc(N)cc(C)c4C(F)(F)F)c(Cl)cc23)C(C)C1` (stereo unspecified) + CCn1c(-c2cccnc2C(C)OC)c2c3cc(ccc31)N1CCOC(CC(NC(=O)C(C(C)C)N(C)C(=O)C3(F)CCN(C(=O)C#CC(C)(C)N(C)C)CC3)C(=O)N3CCCC(N3)C(=O)OCC(C)(C)C2)C1, the IC50 (second compound 0.000949 µM) was less than 3.16 nM, the IC50 (second compound 0.003 µM) was less than 3.16 nM and the IC50 (second compound 0.00949 µM) was less than 3.16 nM. It also gave an IC50 (second compound 0.03 µM) of less than 3.16 nM, an IC50 (second compound 0.0949 µM) of less than 3.16 nM and an IC50 (second compound 0.3 µM) of less than 3.16 nM. It also gave a viability, T/C (second compound 0.000949 µM, first compound 0.00316 µM) of 34.7%, a viability, T/C (second compound 0.000949 µM, first compound 0.01 µM) of 35.5% and a viability, T/C (second compound 0.000949 µM, first compound 0.0316 µM) of 24.3%. It also gave a viability, T/C (second compound 0.000949 µM, first compound 0.1 µM) of 28.4%, a viability, T/C (second compound 0.000949 µM, first compound 0.316 µM) of 29.2% and a viability, T/C (second compound 0.000949 µM, first compound 1 µM) of 25.6%. The viability, T/C (second compound 0.003 µM, first compound 0.00316 µM) was 33.6%, the viability, T/C (second compound 0.003 µM, first compound 0.01 µM) was 28.5% and the viability, T/C (second compound 0.003 µM, first compound 0.0316 µM) was 25.6%. It also gave a viability, T/C (second compound 0.003 µM, first compound 0.1 µM) of 29.4%, a viability, T/C (second compound 0.003 µM, first compound 0.316 µM) of 31.5% and a viability, T/C (second compound 0.003 µM, first compound 1 µM) of 27.6%. It also gave a viability, T/C (second compound 0.00949 µM, first compound 0.00316 µM) of 26.8%, a viability, T/C (second compound 0.00949 µM, first compound 0.01 µM) of 26.7% and a viability, T/C (second compound 0.00949 µM, first compound 0.0316 µM) of 37.2%. It also gave a viability, T/C (second compound 0.00949 µM, first compound 0.1 µM) of 30.9%, a viability, T/C (second compound 0.00949 µM, first compound 0.316 µM) of 27.7% and a viability, T/C (second compound 0.00949 µM, first compound 1 µM) of 25.9%. The viability, T/C (second compound 0.03 µM, first compound 0.00316 µM) was 30.2%, the viability, T/C (second compound 0.03 µM, first compound 0.01 µM) was 30.5% and the viability, T/C (second compound 0.03 µM, first compound 0.0316 µM) was 35%. It also gave a viability, T/C (second compound 0.03 µM, first compound 0.1 µM) of 27.2%, a viability, T/C (second compound 0.03 µM, first compound 0.316 µM) of 27.1% and a viability, T/C (second compound 0.03 µM, first compound 1 µM) of 29.7%. For the same compound, the viability, T/C (second compound 0.0949 µM, first compound 0.00316 µM) was 28.5%, the viability, T/C (second compound 0.0949 µM, first compound 0.01 µM) was 31.4% and the viability, T/C (second compound 0.0949 µM, first compound 0.0316 µM) was 26.9%. The viability, T/C (second compound 0.0949 µM, first compound 0.1 µM) was 27.3%, the viability, T/C (second compound 0.0949 µM, first compound 0.316 µM) was 24.9% and the viability, T/C (second compound 0.0949 µM, first compound 1 µM) was 32.7%. It also gave a viability, T/C (second compound 0.3 µM, first compound 0.00316 µM) of 25.8%, a viability, T/C (second compound 0.3 µM, first compound 0.01 µM) of 30% and a viability, T/C (second compound 0.3 µM, first compound 0.0316 µM) of 24.4%. For the same compound, the viability, T/C (second compound 0.3 µM, first compound 0.1 µM) was 26.2%, the viability, T/C (second compound 0.3 µM, first compound 0.316 µM) was 26% and the viability, T/C (second compound 0.3 µM, first compound 1 µM) was 29.3%.
`CC1(C)CCC(Nc2ncc(C(F)(F)F)c(-c3c[nH]c4c(P(C)(C)=O)c(C#N)ccc34)n2)CN1` (stereo unspecified) + CCn1c(-c2cccnc2C(C)OC)c2c3cc(ccc31)N1CCOC(CC(NC(=O)C(C(C)C)N(C)C(=O)C3(F)CCN(C(=O)C#CC(C)(C)N(C)C)CC3)C(=O)N3CCCC(N3)C(=O)OCC(C)(C)C2)C1 was tested, and the IC50 (second compound 0.000949 µM) was less than 0.949 nM, the IC50 (second compound 0.003 µM) was less than 0.949 nM and the IC50 (second compound 0.00949 µM) was less than 0.949 nM. It also gave an IC50 (second compound 0.03 µM) of less than 0.949 nM, an IC50 (second compound 0.0949 µM) of less than 0.949 nM and an IC50 (second compound 0.3 µM) of less than 0.949 nM. For the same compound, the viability, T/C [1] was 26%, the viability, T/C [2] was 21.2% and the viability, T/C [3] was 14%. It also gave a viability, T/C [4] of 16.1%, a viability, T/C [5] of 14.7% and a viability, T/C [6] of 11.3%. For the same compound, the viability, T/C [7] was 22.4%, the viability, T/C [8] was 17.4% and the viability, T/C [9] was 15.5%. It also gave a viability, T/C [10] of 15.2%, a viability, T/C [11] of 15% and a viability, T/C [12] of 11.6%. The viability, T/C [13] was 23.9%, the viability, T/C [14] was 17.5% and the viability, T/C [15] was 15.9%. The viability, T/C [16] was 15%, the viability, T/C [17] was 13.1% and the viability, T/C [18] was 13.2%. The viability, T/C [19] was 21.9%, the viability, T/C [20] was 19.2% and the viability, T/C [21] was 17.8%. It also gave a viability, T/C [22] of 15.7%, a viability, T/C [23] of 12.4% and a viability, T/C [24] of 13.3%. For the same compound, the viability, T/C [25] was 21.8%, the viability, T/C [26] was 19.2% and the viability, T/C [27] was 16.8%. It also gave a viability, T/C [28] of 13.8%, a viability, T/C [29] of 11.8% and a viability, T/C [30] of 13.2%. It also gave a viability, T/C [31] of 18.8%, a viability, T/C [32] of 17.9% and a viability, T/C [33] of 15.3%. The viability, T/C [34] was 12.3%, the viability, T/C [35] was 11.3% and the viability, T/C [36] was 13.7%.
`CCc1c2c(nc3ccc(O)cc13)-c1cc3c(c(=O)n1C2)COC(=O)[C@]3(O)CC` + CCn1c(-c2cccnc2C(C)OC)c2c3cc(ccc31)N1CCOC(CC(NC(=O)C(C(C)C)N(C)C(=O)C3(F)CCN(C(=O)C#CC(C)(C)N(C)C)CC3)C(=O)N3CCCC(N3)C(=O)OCC(C)(C)C2)C1 showed an IC50 (second compound 0.000949 µM) of less than 0.949 nM, an IC50 (second compound 0.003 µM) of less than 0.949 nM and an IC50 (second compound 0.00949 µM) of less than 0.949 nM. It also gave an IC50 (second compound 0.03 µM) of less than 0.949 nM, an IC50 (second compound 0.0949 µM) of less than 0.949 nM and an IC50 (second compound 0.3 µM) of less than 0.949 nM. It also gave a viability, T/C [1] of 27.9%, a viability, T/C [2] of 13.4% and a viability, T/C [3] of 3.4%. The viability, T/C [4] was 2.46%, the viability, T/C [5] was 1.53% and the viability, T/C [6] was 0.79%. For the same compound, the viability, T/C [7] was 23.4%, the viability, T/C [8] was 12.6% and the viability, T/C [9] was 3.29%. For the same compound, the viability, T/C [10] was 1.82%, the viability, T/C [11] was 1.53% and the viability, T/C [12] was 0.91%. The viability, T/C [13] was 27.1%, the viability, T/C [14] was 11.9% and the viability, T/C [15] was 3.95%. It also gave a viability, T/C [16] of 2.01%, a viability, T/C [17] of 1.54% and a viability, T/C [18] of 0.96%. The viability, T/C [19] was 25.5%, the viability, T/C [20] was 12.3% and the viability, T/C [21] was 3.53%. For the same compound, the viability, T/C [22] was 2.17%, the viability, T/C [23] was 1.25% and the viability, T/C [24] was 0.77%. For the same compound, the viability, T/C [25] was 23.6%, the viability, T/C [26] was 8.82% and the viability, T/C [27] was 3.56%. The viability, T/C [28] was 1.45%, the viability, T/C [29] was 0.88% and the viability, T/C [30] was 0.84%. For the same compound, the viability, T/C [31] was 18.7%, the viability, T/C [32] was 7.22% and the viability, T/C [33] was 2.67%. The viability, T/C [34] was 1.54%, the viability, T/C [35] was 1.11% and the viability, T/C [36] was 1.43%.
